The record followed here is US4007282A, “Lowering lipid and sugar levels in the blood with a bis(4-hydroxyphenyl)alkanoic acid or ester thereof” (Hoechst Aktiengesellschaft, priority 1972, dated 1977).

Read-outs that look alike come from different tables or passages of the source.

One series concerns normolipemic rats. The series is described as follows: Reduction of serum lipid values in normolipemic rats (8 days oral). It is filed as in vivo, rat. As to conditions: 8 doses, male rats; for serum cholesterol, change in percentage (A: referred to the initial value) / serum triglyceride, change in percentage (A: referred to the initial value): column A; for serum cholesterol, change in percentage (B: referred to the untreated control group) / serum triglyceride, change in percentage (B: referred to the untreated control group): column B. Here is the method: 1. Male rats having a normal serum lipid content were treated for eight days with different daily doses mentioned in Table 1. The values given in that Table stand for a change in the serum concentrations of certain lipid classes. The doses administered per os by means of an esophageal sound were 100, 30 and 10 mg/kg/day. Generally, prior to and after the treatment, blood samples were taken and the concentration of cholesterol in the serum was determined according to the method of Lauber and Richterich and that of triglycerides according to the method of Eggstein and Kreutz. In the examples of the following Table 1, the changes in the serum lipid values due to the treatment with the substances of the invention are defined as follows:
a. The changes in percent in the final value of the treated group, referred to the initial value of the treated group, the initial value being 100 percent, and
b. the change in the final value of the treated group, referred to the final value of an accompanying untreated control group, the untreated control group's value being defined as 100 percent. Thus, the value given in columns A is the change in percentage referred to the initial value, whereas the value given in columns B is the change in percentage of the treated group, referred to the untreated control group.

Series [1] concerns dietetic-medicamentous hyperlipemia of male rats. The series is described as follows: Action on the dietetic-medicamentous hyperlipemia of male rats. It is filed as in vivo. As to conditions: Rattus norvegicus, po, 192 h, 100 mg/kg/day p.o., 8 days, male rats on cholesterol diet. The source says:
All the animals were fed with a diet food containing 2% of cholesterol, 2% of sodium cholate, 0.3% of methyl-thiouracil, 20% of coco fat and 44% of cane sugar. The serum lipid concentration of the animals treated with the compounds of the invention was compared to that of an untreated control group on the same diet, which diet causes the serum cholesteral concentration to rise within 1 week to about 10 times the initial value, that of the serum triglycerides to 3 times and that of the phospho-lipids in the serum to 4 times the initial value. The lipid phosphorus was determined according to the method of Messrs. Boehringer Mannheim W. Germany. At the same time as the diet was offered, the compounds of the invention were administered once a day to groups of rats, each containing 10 animals, over a period of 8 days by means of an esophageal sound. The change in percentage in the serum lipid concentration as compared to the control group (diet without active substance) is indicated in Table 2.

Series [2] relates to hypertriglyceridemia induced by carbohydrates in male rats. The series is described as follows: Action on the hypertriglyceridemia induced by carbohydrates (fructose) in male rats. The following applies: Rattus norvegicus, 72 h, 3-day oral pre-treatment, vs untreated control, read-out: Change in percentage of hypertriglyceridemia induced by carbohydrates. It is filed as in vivo.

A short description of another series: in vivo. The following applies: mouse, po.
Series [3] deals with rats that had been fed fructose doses. In words: Hypoglycemic activity: lowering of the blood sugar level in rats fed fructose doses. As to conditions: 100 mg/kg once a day over 3 days, 24 hours after last administration, vs placebo control group. It is filed as in vivo, rat. As to the method: The hypoglycemic activity of some bis(4-hydroxy-phenyl) alkanoic acid derivatives of formulae I and II could be established by administering once a day, over 3 days, 100 mg of the active compound per kg of test animal to rats that had been fed fructose doses and by taking blood samples 24 hours after the last administration in order to determine the blood sugar level by means of an autoanalyzer.
The lowering of the blood sugar content indicated in following Table 4 refers to a control group treated with placebos (blank doses).

The subject of the next series is mice. As to conditions: Table 3.
[4] abbreviates: read-out: serum cholesterol, change in percentage as compared to the control group.
The mark [5] stands for this setting: read-out: serum lipid phosphorus, change in percentage as compared to the control group.
[6] abbreviates: read-out: serum triglyceride, change in percentage as compared to the control group.

Usually LD50 stands for the dose expected to kill half of the subjects tested. Lower therefore signals greater toxicity. For the molecule `CCOC(=O)C(C)(C)Oc1ccc(Cl)cc1` [Clofibrat, reference compound], the “serum cholesterol, change in percentage (A: referred to the initial value)” value in the series on normolipemic rats (100 mg/kg/day p.o.) is -22%. In addition, in the series with normolipemic rats (100 mg/kg/day p.o.), the “serum triglyceride, change in percentage (A: referred to the initial value)” value is listed as -48%. In addition, the “serum cholesterol, change in percentage (B: referred to the untreated control group)” value with normolipemic rats (100 mg/kg/day p.o.) is recorded as -15%. Further, the “serum triglyceride, change in percentage (B: referred to the untreated control group)” value in the series on normolipemic rats (100 mg/kg/day p.o.) is -37%. Moreover, the change in vivo at 100 mg/kg in series [1] (setting [4]) was 0%; in series [1] (setting [5]), -12%; in series [1] (setting [6]) it was -27%; in series [2], -15%. For the same molecule, the LD50 fell in the range of 2000 to 2500 mg/kg in the series “in vivo” (LD50 mice p.o., mice, Table 3) and 2000 to 25000 mg/kg in the series “in vivo” (p.o. LD50 mice, mice, Table 2).
For `Cc1cc(C(C)(CC(=O)O)c2ccc(O)c(C)c2)ccc1O` [Example 1, 3,3-Bis(4'-hydroxy-3'-methyl-phenyl)butanoic acid], the change in vivo at 100 mg/kg was -11% in series [1] (setting [4]), -15% in series [1] (setting [5]) and -18% in series [1] (setting [6]).
As for `CC(C)(C)c1cc(C(C)(CC(=O)O)c2ccc(O)c(C(C)(C)C)c2)ccc1O` [Example 2, 3,3-Bis(4'-hydroxy-3'-tert.-butyl-phenyl)butanoic acid], the change in vivo at 100 mg/kg in series [1] (setting [4]) is -19%; in series [1] (setting [5]), -9%; in series [1] (setting [6]), -13%. The change in vivo at 30 mg/kg in series [2] was -63%. Besides, in the series “in vivo”, the LD50 came out at 2000 mg/kg.
Consider `CC(C)(C)c1cc(C(C(=O)O)c2ccc(O)c(C(C)(C)C)c2)ccc1O` [Example 4, Bis(4'-hydroxy-3'-tert.-butyl-phenyl)ethanoic acid], for which the results for the change in vivo at 100 mg/kg in series [1] (setting [4]), in series [1] (setting [5]) and in series [1] (setting [6]) were -29%, -25% and -21%, respectively.
In the case of `CCCCOC(=O)C(c1ccc(O)c(C(C)(C)C)c1)c1ccc(O)c(C(C)(C)C)c1` [Example 5, Bis(4'-hydroxy-3'-tert.-butyl-phenyl)ethanoic acid n-butyl ester], the “lowering of the blood sugar level in per cent” value (from here on “lowering … per cent”) in series [3] is -30 per cent.
With `CCCCOC(=O)CC(C)(c1ccc(O)c(C)c1)c1ccc(O)c(C)c1` [Example 8, 3,3-bis(4'-hydroxy-3'-methyl-phenyl)butanoic acid n-butyl ester], the “serum cholesterol, change in percentage (B: referred to the untreated control group)” value in the series on normolipemic rats (10 mg/kg/day p.o.) is -13%; with normolipemic rats (30 mg/kg/day p.o.), -16%; in the series with normolipemic rats (100 mg/kg/day p.o.), -26%. Besides, the results for the “serum triglyceride, change in percentage (B: referred to the untreated control group)” value in the series with normolipemic rats (10 mg/kg/day p.o.) and in the series on normolipemic rats (30 mg/kg/day p.o.) were -25% and -22%, respectively. Moreover, the “serum cholesterol, change in percentage (A: referred to the initial value)” value with normolipemic rats (30 mg/kg/day p.o.) was -14%; with normolipemic rats (100 mg/kg/day p.o.), -43%. Also, in the series on normolipemic rats (100 mg/kg/day p.o.), the “serum triglyceride, change in percentage (A: referred to the initial value)” value is given as -23%. The values for the change in vivo at 100 mg/kg in series [1] (setting [4]), in series [1] (setting [5]) and in series [1] (setting [6]) were -36%, -37% and -39%, respectively. For the same molecule, the LD50 mice p.o. in the series on mice was over 8000 mg/kg. For the same molecule, in the series “in vivo”, the LD50 is over 8000 mg/kg.
Regarding `CCCCNC(=O)CC(C)(c1ccc(O)c(C(C)(C)C)c1)c1ccc(O)c(C(C)(C)C)c1` [Example 13, 3,3-Bis(4'-hydroxy-3'-tert.-butyl-phenyl)butanoic acid n-butylamide], the change in vivo at 30 mg/kg in series [2] is -17%. In the series “in vivo”, this molecule registered an LD50 of 8000 mg/kg.
With `CC(C)(C)c1cc(C(C)(CCC(=O)O)c2ccc(O)c(C(C)(C)C)c2)ccc1O` [Example 14, 4,4-Bis(4'-hydroxy-3'-tert.-butyl-phenyl)pentanoic acid], the change in vivo at 100 mg/kg in series [1] (setting [4]) was -36%; in series [1] (setting [5]), -25%; in series [1] (setting [6]), -13%. For the same molecule, the LD50 in the series “in vivo” amounted to 4000 mg/kg.
On to `CC(C)(C)c1cc(C(C)(CC(=O)OCCOC(=O)CC(C)(c2ccc(O)c(C(C)(C)C)c2)c2ccc(O)c(C(C)(C)C)c2)c2ccc(O)c(C(C)(C)C)c2)ccc1O` [Example 16, Bis [3,3-bis(4'-hydroxy-3'-tert.-butyl-phenyl)butanoic acid] glycol ester], for which, in the series with normolipemic rats (30 mg/kg/day p.o.), the “serum cholesterol, change in percentage (A: referred to the initial value)” value was -10%; the “serum cholesterol, change in percentage (B: referred to the untreated control group)” value is recorded as -15%; the “serum triglyceride, change in percentage (B: referred to the untreated control group)” value is reported as -32%. In addition, in the series with normolipemic rats (100 mg/kg/day p.o.), the “serum cholesterol, change in percentage (A: referred to the initial value)” value is -20%; the “serum triglyceride, change in percentage (A: referred to the initial value)” value was -27%; the “serum cholesterol, change in percentage (B: referred to the untreated control group)” value is -21%; the “serum triglyceride, change in percentage (B: referred to the untreated control group)” value is recorded as -26%. Further, in series [2], the change in vivo at 30 mg/kg is -24%.
As for `CC(C)(C)c1cc(C(C)(CC(=O)OCCCCCCOC(=O)CC(C)(c2ccc(O)c(C(C)(C)C)c2)c2ccc(O)c(C(C)(C)C)c2)c2ccc(O)c(C(C)(C)C)c2)ccc1O` [Example 17, Bis [3,3-bis(4'-hydroxy-3'-tert.-butyl-phenyl)butanoic acid]hexane-diol-1,6ester], the change in vivo at 100 mg/kg in series [2] was -10%. Also, in series [3], the “lowering … per cent” value is -18 per cent. The molecule further came in with an LD50 in “in vivo” of over 8000 mg/kg.
For `CC(C)(C)c1cc(C(C)(CCC(=O)OCCOC(=O)CCC(C)(c2ccc(O)c(C(C)(C)C)c2)c2ccc(O)c(C(C)(C)C)c2)c2ccc(O)c(C(C)(C)C)c2)ccc1O` [Example 18, Bis [4,4-bis(4'hydroxy-3'-tert.-butyl-phenyl)pentanoic acid] glycol ester], in the series with normolipemic rats (100 mg/kg/day p.o.), the “serum cholesterol, change in percentage (A: referred to the initial value)” value is on record as -48%; the “serum triglyceride, change in percentage (A: referred to the initial value)” value was -51%; the “serum cholesterol, change in percentage (B: referred to the untreated control group)” value was -33%; the “serum triglyceride, change in percentage (B: referred to the untreated control group)” value is on record as -17%. For the same molecule, the change in vivo at 100 mg/kg in series [1] (setting [4]) was -36%. Besides, in series [1] (setting [5]), the change in vivo at 100 mg/kg was -37%. Also, the change in vivo at 100 mg/kg in series [1] (setting [6]) was -19%. In addition, in series [2], the change in vivo at 30 mg/kg was -34% and the change in vivo at 100 mg/kg was -46%. Moreover, the LD50 in the series “in vivo” stood at 4340 mg/kg.
On to `CC(CCC(=O)O)(c1ccc(O)cc1)c1ccc(O)cc1` [Example 19, 4,4-Bis(4'-hydroxy-phenyl)pentanoic acid], for which the change in vivo at 100 mg/kg was -17% in series [1] (setting [4]), -17% in series [1] (setting [5]), -28% in series [1] (setting [6]) and -27% in series [2]. For the same molecule, the “lowering … per cent” value in series [3] is on record as -20 per cent.
Consider `CC(C)(C)c1cc(C(C)(CC(=O)OCCOC(=O)CC(C)(c2cc(Br)c(O)c(C(C)(C)C)c2)c2cc(Br)c(O)c(C(C)(C)C)c2)c2cc(Br)c(O)c(C(C)(C)C)c2)cc(Br)c1O` [Example 21, Bis [3,3-bis(4'-hydroxy-3'-tert.-butyl-5'-bromophenyl)butanoic acid] glycol ester], for which the LD50 in “in vivo” was 4090 mg/kg.
